Reference: ChEMBL document CHEMBL1781973, “Novel and Potent 5-Piperazinyl Methyl-N 1-aryl Sulfonyl Indole Derivatives as 5-HT6 Receptor Ligands” (ACS Med Chem Lett, 2010)
Calls of active or inactive are those of the source. No cut-off for these calls is given here.

Legend:
CYP1A2 [1] = target: T1, CYP1A2 (Homo sapiens, UniProt P05177); test: Inhibition of human CYP1A2 at 3 uM; assay type: ADME
T1 sequence (P05177 whole entry): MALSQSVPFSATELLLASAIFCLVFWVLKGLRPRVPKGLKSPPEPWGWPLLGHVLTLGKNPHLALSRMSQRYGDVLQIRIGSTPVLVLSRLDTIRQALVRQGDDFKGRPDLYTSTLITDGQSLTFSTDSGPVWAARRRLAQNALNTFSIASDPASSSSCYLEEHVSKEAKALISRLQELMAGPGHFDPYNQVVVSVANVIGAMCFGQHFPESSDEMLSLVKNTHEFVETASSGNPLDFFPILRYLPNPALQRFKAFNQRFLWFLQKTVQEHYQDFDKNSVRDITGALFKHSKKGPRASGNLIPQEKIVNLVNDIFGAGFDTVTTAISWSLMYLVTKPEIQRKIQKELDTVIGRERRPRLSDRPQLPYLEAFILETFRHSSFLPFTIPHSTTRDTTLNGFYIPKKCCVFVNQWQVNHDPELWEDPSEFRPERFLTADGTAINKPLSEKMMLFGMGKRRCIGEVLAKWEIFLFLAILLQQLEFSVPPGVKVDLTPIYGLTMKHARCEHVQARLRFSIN

CYP1A2 [2] = target: T1, CYP1A2; test: Inhibition of human CYP1A2 at 10 uM; assay type: ADME
CYP2A6 [3] = target: T2, CYP2A6 (Homo sapiens, UniProt P11509); test: Inhibition of human CYP2A6 at 3 uM; assay type: ADME
T2 sequence (P11509 whole entry): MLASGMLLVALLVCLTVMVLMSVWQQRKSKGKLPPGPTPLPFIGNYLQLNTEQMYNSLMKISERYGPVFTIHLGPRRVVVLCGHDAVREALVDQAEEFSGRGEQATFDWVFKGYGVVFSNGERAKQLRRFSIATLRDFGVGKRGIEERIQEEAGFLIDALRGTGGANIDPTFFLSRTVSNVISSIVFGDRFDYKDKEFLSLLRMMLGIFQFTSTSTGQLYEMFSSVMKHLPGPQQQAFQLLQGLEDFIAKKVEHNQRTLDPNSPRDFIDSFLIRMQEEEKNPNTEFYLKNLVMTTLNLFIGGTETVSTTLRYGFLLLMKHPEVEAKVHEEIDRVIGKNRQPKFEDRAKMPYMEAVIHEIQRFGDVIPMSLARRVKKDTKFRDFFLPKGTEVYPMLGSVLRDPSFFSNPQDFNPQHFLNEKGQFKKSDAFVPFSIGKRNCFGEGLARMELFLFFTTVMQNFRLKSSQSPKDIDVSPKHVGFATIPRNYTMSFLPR

CYP2A6 [4] = target: T2, CYP2A6; test: Inhibition of human CYP2A6 at 10 uM; assay type: ADME
CYP2C19 [5] = target: T3, CYP2C19 (Homo sapiens, UniProt P33261); test: Inhibition of human CYP2C19 at 3 uM; assay type: ADME
CYP2C19 [6] = target: T3, CYP2C19; test: Inhibition of human CYP2C19 at 10 uM; assay type: ADME
CYP2C9*1 [7] = test: Inhibition of human CYP2C9*1 at 3 uM; assay type: ADME
CYP2C9*1 [8] = test: Inhibition of human CYP2C9*1 at 10 uM; assay type: ADME
CYP2D6 [9] = target: T4, CYP2D6 (Homo sapiens, UniProt P10635); test: Inhibition of human CYP2D6 at 3 uM; assay type: ADME
CYP2D6 [10] = target: T4, CYP2D6; test: Inhibition of human CYP2D6 at 10 uM; assay type: ADME
CYP3A4 [11] = target: T5, CYP3A4 (Homo sapiens, UniProt P08684); test: Inhibition of human CYP3A4 at 3 uM; assay type: ADME
CYP3A4 [12] = target: T5, CYP3A4; test: Inhibition of human CYP3A4 at 10 uM; assay type: ADME
[13] = target: 5-hydroxytryptamine receptor 4 (Homo sapiens, UniProt Q13639); test: Inhibition of human 5HT4 receptor expressed in CHO cells after 5 hrs by luciferase reporter assay; assay type: cell-based
[14] = target: 5-hydroxytryptamine receptor 7 (Homo sapiens, UniProt P34969); test: Inhibition of human 5HT7 receptor expressed in CHO cells after 5 hrs by luciferase reporter assay; assay type: cell-based
[15] = target: T6, Muscarinic acetylcholine receptor M1 (Homo sapiens, UniProt P11229); test: Inhibition of human muscarinic M1 receptor expressed in CHO cells after 5 hrs by luciferase reporter assay; assay type: cell-based
T6 sequence (P11229 whole entry): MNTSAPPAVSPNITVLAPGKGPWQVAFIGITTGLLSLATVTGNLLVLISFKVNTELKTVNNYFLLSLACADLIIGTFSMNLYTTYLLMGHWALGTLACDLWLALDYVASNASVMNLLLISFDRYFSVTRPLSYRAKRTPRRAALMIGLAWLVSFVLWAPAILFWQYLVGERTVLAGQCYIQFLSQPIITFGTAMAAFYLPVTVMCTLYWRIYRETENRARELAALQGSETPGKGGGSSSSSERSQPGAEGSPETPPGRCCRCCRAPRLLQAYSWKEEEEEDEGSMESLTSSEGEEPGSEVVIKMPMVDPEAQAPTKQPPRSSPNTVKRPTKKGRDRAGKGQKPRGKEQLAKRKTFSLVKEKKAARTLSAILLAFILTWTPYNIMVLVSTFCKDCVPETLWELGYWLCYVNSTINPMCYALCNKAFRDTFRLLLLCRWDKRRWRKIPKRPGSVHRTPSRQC

[16] = target: 5-hydroxytryptamine receptor 6 (Homo sapiens, UniProt P50406); test: biochemical
Description: Displacement of [3H]LSD from human 5HT6 receptor expressed in HEK293 cells

Rattus norvegicus [17] = test: Cognitive enhancing effect against scopolamine-induced memory deficit in Wistar rat at 10 mg/kg, po by novel object recognition test; assay type: functional, organism-based; design: dose 10 mg/kg
Rattus norvegicus [18] = test: Cognitive enhancing effect against scopolamine-induced memory deficit in Wistar rat at 30 mg/kg, po administered 60 mins before acquisition training measured after 5 days by Morris water maze test; assay type: functional, organism-based; design: dose 30 mg/kg
[19] = Cmax in fasted Wistar rat at 10 mg/kg, po; assay type: ADME, organism-based; design: dose 10 mg/kg, route oral; settings: in vivo
[20] = Cmax in fasted Wistar rat at 10 mg/kg, iv; assay type: ADME, organism-based; design: dose 10 mg/kg, route intravenous; settings: in vivo
[21] = AUCt in fasted Wistar rat at 10 mg/kg, po; assay type: ADME, organism-based; design: dose 10 mg/kg, route oral; settings: plasma
[22] = AUCt in fasted Wistar rat at 10 mg/kg, iv; assay type: ADME, organism-based; design: dose 10 mg/kg, route intravenous; settings: plasma
[23] = Half life in fasted Wistar rat at 10 mg/kg, po; assay type: ADME, organism-based; design: dose 10 mg/kg, route oral; settings: in vivo
[24] = Half life in fasted Wistar rat at 10 mg/kg, iv; assay type: ADME, organism-based; design: dose 10 mg/kg, route intravenous; settings: in vivo
Rattus norvegicus [25] = test: Apparent volume of distribution in fasted Wistar rat at 10 mg/kg, po; assay type: ADME, organism-based; design: dose 10 mg/kg, route oral; settings: in vivo
[26] = Apparent volume of distribution in fasted Wistar rat at 10 mg/kg, iv; assay type: ADME, organism-based; design: dose 10 mg/kg, route intravenous; settings: in vivo, read-out: Vz
[27] = Clearance in fasted Wistar rat at 10 mg/kg, po; assay type: ADME, organism-based; design: dose 10 mg/kg, route oral; settings: in vivo
[28] = Clearance in fasted Wistar rat at 10 mg/kg, iv; assay type: ADME, organism-based; design: dose 10 mg/kg, route intravenous; settings: in vivo
[29] = Oral bioavailability in fasted Wistar rat; assay type: ADME, organism-based; settings: in vivo
[30] = Ratio of drug level at steady state in brain to plasma in fasted Wistar rat; assay type: ADME; settings: read-out: BPR

T4 sequence (P10635 whole entry): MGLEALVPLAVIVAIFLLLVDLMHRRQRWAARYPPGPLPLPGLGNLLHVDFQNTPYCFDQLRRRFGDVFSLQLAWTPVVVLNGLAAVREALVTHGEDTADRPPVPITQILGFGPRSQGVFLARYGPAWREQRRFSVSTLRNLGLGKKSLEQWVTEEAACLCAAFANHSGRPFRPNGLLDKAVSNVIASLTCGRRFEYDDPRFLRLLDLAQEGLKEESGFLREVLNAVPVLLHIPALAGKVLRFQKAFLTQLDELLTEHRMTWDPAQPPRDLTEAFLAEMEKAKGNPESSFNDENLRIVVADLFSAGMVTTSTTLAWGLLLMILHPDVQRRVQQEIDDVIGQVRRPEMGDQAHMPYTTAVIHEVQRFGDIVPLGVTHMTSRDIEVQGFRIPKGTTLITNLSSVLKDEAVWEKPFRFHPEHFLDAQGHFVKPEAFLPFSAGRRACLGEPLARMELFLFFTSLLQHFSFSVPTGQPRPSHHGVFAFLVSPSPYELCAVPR
T3 sequence (P33261 whole entry): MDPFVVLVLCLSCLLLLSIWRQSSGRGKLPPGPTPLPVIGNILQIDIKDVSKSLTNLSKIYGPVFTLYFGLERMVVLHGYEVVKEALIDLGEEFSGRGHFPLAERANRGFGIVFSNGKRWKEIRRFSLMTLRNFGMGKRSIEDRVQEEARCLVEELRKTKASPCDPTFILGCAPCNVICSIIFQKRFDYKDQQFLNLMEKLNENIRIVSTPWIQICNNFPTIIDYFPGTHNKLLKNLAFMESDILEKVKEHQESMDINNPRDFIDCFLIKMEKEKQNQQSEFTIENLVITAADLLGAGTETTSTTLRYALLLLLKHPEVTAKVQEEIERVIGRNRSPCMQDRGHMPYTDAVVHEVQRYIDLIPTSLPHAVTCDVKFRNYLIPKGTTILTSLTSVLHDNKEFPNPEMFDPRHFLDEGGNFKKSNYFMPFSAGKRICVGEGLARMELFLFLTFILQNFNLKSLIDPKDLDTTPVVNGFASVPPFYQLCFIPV
Chain of 5-hydroxytryptamine receptor 6 (P50406 whole entry): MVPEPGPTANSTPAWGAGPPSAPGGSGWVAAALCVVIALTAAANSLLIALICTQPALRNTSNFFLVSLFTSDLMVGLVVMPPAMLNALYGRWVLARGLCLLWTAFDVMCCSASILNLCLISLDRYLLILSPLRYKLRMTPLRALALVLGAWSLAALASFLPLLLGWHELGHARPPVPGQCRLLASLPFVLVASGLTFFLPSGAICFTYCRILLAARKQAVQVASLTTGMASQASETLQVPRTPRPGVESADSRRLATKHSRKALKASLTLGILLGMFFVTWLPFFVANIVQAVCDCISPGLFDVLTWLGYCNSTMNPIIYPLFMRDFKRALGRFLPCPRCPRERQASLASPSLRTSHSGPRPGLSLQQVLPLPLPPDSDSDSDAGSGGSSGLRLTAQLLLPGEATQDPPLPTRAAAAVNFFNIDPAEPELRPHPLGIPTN
T5 sequence (P08684 whole entry): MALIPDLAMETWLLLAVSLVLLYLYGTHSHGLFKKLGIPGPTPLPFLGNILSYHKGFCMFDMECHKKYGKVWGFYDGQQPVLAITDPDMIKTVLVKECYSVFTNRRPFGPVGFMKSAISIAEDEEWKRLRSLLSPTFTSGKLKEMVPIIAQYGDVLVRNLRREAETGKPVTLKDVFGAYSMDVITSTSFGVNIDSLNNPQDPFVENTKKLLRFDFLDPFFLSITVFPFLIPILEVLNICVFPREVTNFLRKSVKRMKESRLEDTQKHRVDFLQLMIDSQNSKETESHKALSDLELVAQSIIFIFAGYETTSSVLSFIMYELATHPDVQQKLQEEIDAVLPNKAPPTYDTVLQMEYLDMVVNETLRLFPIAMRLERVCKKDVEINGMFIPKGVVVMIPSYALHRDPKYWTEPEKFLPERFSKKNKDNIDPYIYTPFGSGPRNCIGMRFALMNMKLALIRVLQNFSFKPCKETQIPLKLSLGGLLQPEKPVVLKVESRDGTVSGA
Chain of 5-hydroxytryptamine receptor 4 (Q13639 whole entry): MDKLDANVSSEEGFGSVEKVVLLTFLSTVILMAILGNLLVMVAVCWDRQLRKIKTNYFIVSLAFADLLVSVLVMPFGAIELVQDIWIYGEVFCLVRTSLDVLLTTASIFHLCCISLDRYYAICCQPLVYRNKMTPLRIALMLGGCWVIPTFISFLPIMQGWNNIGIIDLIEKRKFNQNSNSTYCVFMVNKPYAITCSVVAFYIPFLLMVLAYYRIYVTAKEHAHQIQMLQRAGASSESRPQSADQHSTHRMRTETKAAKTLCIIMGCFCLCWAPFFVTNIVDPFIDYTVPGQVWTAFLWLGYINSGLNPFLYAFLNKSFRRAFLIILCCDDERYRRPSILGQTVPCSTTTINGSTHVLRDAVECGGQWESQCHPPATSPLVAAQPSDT
Chain of 5-hydroxytryptamine receptor 7 (P34969 whole entry): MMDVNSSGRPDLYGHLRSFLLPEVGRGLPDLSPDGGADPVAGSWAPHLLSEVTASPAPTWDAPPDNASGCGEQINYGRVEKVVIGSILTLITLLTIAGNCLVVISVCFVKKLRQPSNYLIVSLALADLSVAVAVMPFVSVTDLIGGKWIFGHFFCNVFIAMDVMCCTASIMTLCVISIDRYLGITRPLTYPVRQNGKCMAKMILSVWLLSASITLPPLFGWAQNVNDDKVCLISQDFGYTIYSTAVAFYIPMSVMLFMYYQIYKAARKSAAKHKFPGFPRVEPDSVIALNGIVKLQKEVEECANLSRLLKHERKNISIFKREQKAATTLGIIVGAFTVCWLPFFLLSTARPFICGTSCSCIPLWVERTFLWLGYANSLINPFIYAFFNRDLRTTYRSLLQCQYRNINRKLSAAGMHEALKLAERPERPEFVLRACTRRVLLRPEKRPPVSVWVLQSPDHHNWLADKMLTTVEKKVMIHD

| SMILES | inhibition at 3 µM (CYP1A2 [1]) | inhibition at 10 µM (CYP1A2 [2]) | inhibition at 3 µM (CYP2A6 [3]) | inhibition at 10 µM (CYP2A6 [4]) | inhibition at 3 µM (CYP2C19 [5]) | inhibition at 10 µM (CYP2C19 [6]) | inhibition at 3 µM (CYP2C9*1 [7]) | inhibition at 10 µM (CYP2C9*1 [8]) | inhibition at 3 µM (CYP2D6 [9]) | inhibition at 10 µM (CYP2D6 [10]) | inhibition at 3 µM (CYP3A4 [11]) | inhibition at 10 µM (CYP3A4 [12]) | Ki [16] | also measured |
| --- | --- | --- | --- | --- | --- | --- | --- | --- | --- | --- | --- | --- | --- | --- |
| CCN1CCN(Cc2ccc3c(ccn3S(=O)(=O)c3ccc(F)cc3)c2)CC1 | 13.7% | 8.34% | -7.74% | 10.2% | 6.75% | 4.7% | -14.3% | 19.6% | 10.3% | 46% | 18.6% | 34.2% |  |  |
| CN1CCN(Cc2ccc3c(c2)c(Cl)cn3S(=O)(=O)c2ccc(F)cc2)CC1 | 3.4% | 26.9% | 14.1% | 19.8% | 10.1% | 21.5% | 6.42% | 9.13% | 6.42% | 15.2% | 2.6% | 39% |  | IC50 [13]: > 10000 nM; IC50 [14]: > 10000 nM; IC50 [15]: > 10000 nM |
| CCN1CCN(Cc2ccc3c(ccn3Cc3ccccc3)c2)CC1 |  |  |  |  |  |  |  |  |  |  |  |  | > 1000 nM |  |
| CN1CCN(Cc2ccc3c(c2)c(Cl)cn3S(=O)(=O)c2ccc(Cl)cc2)CC1 |  |  |  |  |  |  |  |  |  |  |  |  | 9.33 nM |  |
| CCN1CCN(Cc2ccc3c(ccn3S(=O)(=O)c3cccc(C(F)(F)F)c3)c2)CC1 |  |  |  |  |  |  |  |  |  |  |  |  | 5.72 nM |  |
| CN1CCN(Cc2ccc3c(ccn3S(=O)(=O)c3ccccc3)c2)CC1 | 14.4% | 17.3% | -2.24% | 4.81% | 9.91% | 31.2% | -8.69% | 18.2% | 12% | 31.2% | 8.24% | 5.47% |  |  |
| CCN1CCN(Cc2ccc3c(ccn3S(=O)(=O)c3ccccc3Br)c2)CC1 | 3.64% | 17.9% | -0.39% | 10.8% | 22.8% | 43.6% | 7.47% | 15.9% | 48.3% | 76.2% | -3.67% | 32.9% |  | Activity (Rattus norvegicus [17]): Active; Activity (Rattus norvegicus [18]): Active; IC50 [13]: > 10000 nM; IC50 [14]: > 10000 nM; IC50 [15]: 1420 nM; Cmax [19]: 13 ng/mL; Cmax [20]: 716 ng/mL; AUC(0-t) [21]: 59 ng·h/mL; AUC(0-t) [22]: 1380 ng·h/mL; half-life [23]: 6.04 h; half-life [24]: 2.1 h; Vz (Rattus norvegicus [25]): 1035.145 L/kg; Vd [26]: 21.8 L/kg; CL/F [27]: 2140 mL/min/kg; clearance [28]: 120 mL/min/kg; bioavailability [29]: 4.2%; Kp [30]: 19.3 |
| CCN1CCN(Cc2ccc3c(ccn3S(=O)(=O)c3ccc(Cl)cc3)c2)CC1 |  |  |  |  |  |  |  |  |  |  |  |  | 28.2 nM |  |
| CCN1CCN(Cc2ccc3c(ccn3S(=O)(=O)c3ccc(C(C)C)cc3)c2)CC1 | 14.5% | 18.2% | -1.26% | 21.9% | 23.9% | 51.1% | 7.12% | 46.3% | 10.4% | 35.7% | 30.5% | 68.1% |  |  |
| CN1CCN(Cc2ccc3c(ccn3C(=O)c3ccccc3)c2)CC1 |  |  |  |  |  |  |  |  |  |  |  |  | > 1000 nM |  |
| CCN1CCN(Cc2ccc3c(ccn3S(=O)(=O)c3ccc(C)cc3)c2)CC1 |  |  |  |  |  |  |  |  |  |  |  |  | 11 nM |  |
| CN1CCN(Cc2ccc3c(ccn3S(=O)(=O)c3cccc(C(F)(F)F)c3)c2)CC1 |  |  |  |  |  |  |  |  |  |  |  |  | 3.15 nM |  |
| O=S(=O)(c1ccc(F)cc1F)n1cc(Cl)c2cc(CN3CCNCC3)ccc21 | 14.5% | 14.6% | -3.62% | 6.37% | 31.9% | 72.9% | -12.6% | 27.8% | 1.46% | 17.7% | 26.4% | 45% | 5.57 nM |  |
